Experimental data taken from PubChem BioAssay (NCI).
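Five concentrations, 48 hours, 96-well plates. Abbreviation: GI50, concentration required for 50% inhibition of growth. Definition used: TGI = concentration required for complete inhibition of growth.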

Tests used:
Experiment in all cases: NCI tumour cell line growth inhibition, 48 h
786-0 renal = tested on: 786-0 renal
A498 renal = tested on: A498 renal
A549 NSCLC = tested on: A549 NSCLC
ACHN renal = tested on: ACHN renal
BT-549 breast = tested on: BT-549 breast
CAKI-1 renal = tested on: CAKI-1 renal
CCRF-CEM leukemia = tested on: CCRF-CEM leukemia
COLO 205 colon = tested on: COLO 205 colon
DU-145 prostate = tested on: DU-145 prostate
EKVX NSCLC = tested on: EKVX NSCLC
HCC-2998 colon = tested on: HCC-2998 colon
HCT-15 colon = tested on: HCT-15 colon
HL-60(TB) leukemia = tested on: HL-60(TB) leukemia
HOP-62 NSCLC = tested on: HOP-62 NSCLC
HOP-92 NSCLC = tested on: HOP-92 NSCLC
HS 578T breast = tested on: HS 578T breast
HT29 colon = tested on: HT29 colon
IGROV1 ovarian = tested on: IGROV1 ovarian
K-562 leukemia = tested on: K-562 leukemia
KM12 colon = tested on: KM12 colon
LOX IMVI melanoma = tested on: LOX IMVI melanoma
M14 melanoma = tested on: M14 melanoma
MALME-3M melanoma = tested on: MALME-3M melanoma
MCF7 breast = tested on: MCF7 breast
MDA-MB-231 breast = tested on: MDA-MB-231 breast
MDA-MB-435 = tested on: MDA-MB-435
MDA-MB-468 breast = tested on: MDA-MB-468 breast
MOLT-4 leukemia = tested on: MOLT-4 leukemia
NCI-H226 lung = tested on: NCI-H226 lung
NCI-H23 lung = tested on: NCI-H23 lung
NCI-H460 lung = tested on: NCI-H460 lung
NCI-H522 lung = tested on: NCI-H522 lung
NCI/ADR-RES ovarian = tested on: NCI/ADR-RES ovarian
OVCAR-3 ovarian = tested on: OVCAR-3 ovarian
OVCAR-4 ovarian = tested on: OVCAR-4 ovarian
OVCAR-5 ovarian = tested on: OVCAR-5 ovarian
OVCAR-8 ovarian = tested on: OVCAR-8 ovarian
PC-3 prostate = tested on: PC-3 prostate
RPMI-8226 leukemia = tested on: RPMI-8226 leukemia
RXF 393 renal = tested on: RXF 393 renal
SF-268 CNS = tested on: SF-268 CNS
SF-295 CNS = tested on: SF-295 CNS
SF-539 CNS = tested on: SF-539 CNS
SK-MEL-2 melanoma = tested on: SK-MEL-2 melanoma
SK-MEL-28 melanoma = tested on: SK-MEL-28 melanoma
SK-MEL-5 melanoma = tested on: SK-MEL-5 melanoma
SK-OV-3 ovarian = tested on: SK-OV-3 ovarian
SN12C renal = tested on: SN12C renal
SNB-19 CNS = tested on: SNB-19 CNS
SNB-75 CNS = tested on: SNB-75 CNS
SR leukemia = tested on: SR leukemia
SW-620 colon = tested on: SW-620 colon
T-47D breast = tested on: T-47D breast
TK-10 renal = tested on: TK-10 renal
U251 CNS = tested on: U251 CNS
UACC-257 melanoma = tested on: UACC-257 melanoma
UACC-62 melanoma = tested on: UACC-62 melanoma
UO-31 renal = tested on: UO-31 renal

CCNCCCn1c2c(c3cc(OC)c(OC)cc3c1=O)C(=O)c1cc3c(nc1-2)OCO3
GI50 (786-0 renal): 1.39 µM
TGI (786-0 renal): 2.84 µM
GI50 (A498 renal): 9.07 µM
TGI (A498 renal): 23 µM
GI50 (A549 NSCLC): 1.22 µM
TGI (A549 NSCLC): 18.4 µM
GI50 (ACHN renal): 0.755 µM
TGI (ACHN renal): 7.05 µM
GI50 (BT-549 breast): 6.82 µM
TGI (BT-549 breast): 25.1 µM
GI50 (CAKI-1 renal): 0.946 µM
TGI (CAKI-1 renal): 16.6 µM
GI50 (CCRF-CEM leukemia): 0.0351 µM
TGI (CCRF-CEM leukemia): 1.23 µM
GI50 (COLO 205 colon): 3.07 µM
TGI (COLO 205 colon): 19.6 µM
GI50 (DU-145 prostate): 0.548 µM
TGI (DU-145 prostate): 12.5 µM
GI50 (EKVX NSCLC): 5.26 µM
TGI (EKVX NSCLC): 20 µM
GI50 (HCC-2998 colon): 4.07 µM
TGI (HCC-2998 colon): 18.9 µM
GI50 (HCT-15 colon): 1.14 µM
TGI (HCT-15 colon): 2.54 µM
GI50 (HL-60(TB) leukemia): 1.63 µM
TGI (HL-60(TB) leukemia): 7.5 µM
GI50 (HOP-62 NSCLC): 0.205 µM
TGI (HOP-62 NSCLC): 10.2 µM
GI50 (HOP-92 NSCLC): 7.73 µM
TGI (HOP-92 NSCLC): 23.1 µM
GI50 (HS 578T breast): 10.4 µM
TGI (HS 578T breast): 29.8 µM
GI50 (HT29 colon): 0.706 µM
TGI (HT29 colon): 16.1 µM
GI50 (IGROV1 ovarian): 12.1 µM
TGI (IGROV1 ovarian): 25.7 µM
GI50 (K-562 leukemia): 0.483 µM
TGI (K-562 leukemia): 2.75 µM
GI50 (KM12 colon): 10.4 µM
TGI (KM12 colon): 23.8 µM
GI50 (LOX IMVI melanoma): 0.487 µM
TGI (LOX IMVI melanoma): 1.9 µM
GI50 (M14 melanoma): 1.97 µM
TGI (M14 melanoma): 12.3 µM
GI50 (MALME-3M melanoma): 1.35 µM
TGI (MALME-3M melanoma): 2.76 µM
GI50 (MCF7 breast): 0.0754 µM
TGI (MCF7 breast): 10.3 µM
GI50 (MDA-MB-231 breast): 1.91 µM
TGI (MDA-MB-231 breast): 6.14 µM
GI50 (MDA-MB-435): 1.38 µM
TGI (MDA-MB-435): 2.89 µM
GI50 (MDA-MB-468 breast): 0.431 µM
TGI (MDA-MB-468 breast): 2.51 µM
GI50 (MOLT-4 leukemia): 0.048 µM
TGI (MOLT-4 leukemia): 2.13 µM
GI50 (NCI-H226 lung): 1.27 µM
TGI (NCI-H226 lung): 3.2 µM
GI50 (NCI-H23 lung): 0.324 µM
TGI (NCI-H23 lung): 3.76 µM
GI50 (NCI-H460 lung): 0.239 µM
TGI (NCI-H460 lung): 1.39 µM
GI50 (NCI-H522 lung): 0.442 µM
TGI (NCI-H522 lung): 23 µM
GI50 (NCI/ADR-RES ovarian): 1.56 µM
TGI (NCI/ADR-RES ovarian): 4.14 µM
GI50 (OVCAR-3 ovarian): 11.9 µM
TGI (OVCAR-3 ovarian): 24.7 µM
GI50 (OVCAR-4 ovarian): 14.2 µM
TGI (OVCAR-4 ovarian): 31.9 µM
GI50 (OVCAR-5 ovarian): 3.69 µM
TGI (OVCAR-5 ovarian): 16.5 µM
GI50 (OVCAR-8 ovarian): 1.82 µM
TGI (OVCAR-8 ovarian): 12 µM
GI50 (PC-3 prostate): 1.28 µM
TGI (PC-3 prostate): 18.9 µM
GI50 (RPMI-8226 leukemia): 0.641 µM
TGI (RPMI-8226 leukemia): 2.97 µM
GI50 (RXF 393 renal): 1.35 µM
TGI (RXF 393 renal): 5.66 µM
GI50 (SF-268 CNS): 0.85 µM
TGI (SF-268 CNS): 16.8 µM
GI50 (SF-295 CNS): 0.23 µM
TGI (SF-295 CNS): 12.7 µM
GI50 (SF-539 CNS): 0.675 µM
TGI (SF-539 CNS): 4.1 µM
GI50 (SK-MEL-2 melanoma): > 100 µM
TGI (SK-MEL-2 melanoma): > 100 µM
GI50 (SK-MEL-28 melanoma): 2.56 µM
TGI (SK-MEL-28 melanoma): 8.53 µM
GI50 (SK-MEL-5 melanoma): 0.921 µM
TGI (SK-MEL-5 melanoma): 2.14 µM
GI50 (SK-OV-3 ovarian): 1.14 µM
TGI (SK-OV-3 ovarian): 11.8 µM
GI50 (SN12C renal): 4.61 µM
TGI (SN12C renal): 17.4 µM
GI50 (SNB-19 CNS): 1.69 µM
TGI (SNB-19 CNS): 17.5 µM
GI50 (SNB-75 CNS): 0.495 µM
TGI (SNB-75 CNS): 9.41 µM
GI50 (SR leukemia): 0.307 µM
TGI (SR leukemia): 2.39 µM
GI50 (SW-620 colon): 0.631 µM
TGI (SW-620 colon): 20.1 µM
GI50 (T-47D breast): 1.06 µM
TGI (T-47D breast): 13.9 µM
GI50 (TK-10 renal): 17.6 µM
TGI (TK-10 renal): 33.3 µM
GI50 (U251 CNS): 0.348 µM
TGI (U251 CNS): 14.7 µM
GI50 (UACC-257 melanoma): 13.4 µM
TGI (UACC-257 melanoma): 27.7 µM
GI50 (UACC-62 melanoma): 1.81 µM
TGI (UACC-62 melanoma): 15.4 µM
GI50 (UO-31 renal): 3.09 µM
TGI (UO-31 renal): 16.3 µM
